Assay results published in publication PMC11032351, “Epigenetic modulation through BET bromodomain inhibitors as a novel therapeutic strategy for progranulin-deficient frontotemporal dementia” (Scientific Reports, 2024).

What was measured:
Type in all cases: binding
[1] = biological target: T1, Endogenous BRD4 (HEK293T) (Homo sapiens, UniProt O60885); assay: CoraFluor TR-FRET ligand displacement, endogenous BRD4 in HEK293T lysate; conditions: with 95% confidence interval, read-out: Endogenous BRD4 (HEK293T), KD,app
T1 construct: target engagement toward endogenous BRD4 derived from cellular lysates of cell types of interest; endogenous in cells; host or cells: HEK293T
Protocol: A cell pellet from one 15 cm dish (~ 25 M cells) of HEK293T cells, or from one confluent T-75 flask 8330-8 NPC cells (~ 9 M cells), was allowed to thaw on ice and cells were suspended in 400 μL lysis buffer (25 mM HEPES, 150 mM NaCl, 0.2% (v/v) Triton X-100, 0.02% (v/v) TWEEN-20, pH 7.5 supplemented with 2 mM DTT and one Roche cOmplete, Mini, EDTA-free protease inhibitor cocktail tablet (Sigma 11,836,170,001) per 7 mL. Cells were homogenized via passage through a 27.5-gauge needle 5 times, and the resulting mixture was incubated with slow, end-over-end mixing at 4 °C for 15 min. The lysate was clarified via centrifugation at 16,100 × g for 10 min at 4 °C then 800 μL (1:3 dilution) dilution buffer (25 mM HEPES, 150 mM NaCl, 0.005% (v/v) TWEEN-20, pH 7.5) was added and the lysate was re-clarified at 16,100 × g for 10 min at 4 °C. Total protein was quantified via detergent-compatible Bradford assay (ThermoFisher 23,246). The lysate was used fresh or flash-frozen in liquid nitrogen and stored at − 80 °C in single-use aliquots.
(§1) Unless otherwise noted, experiments were performed in white, 384-well microtiter plates (Corning 3572 or PerkinElmer ProxiPlate-384 Plus) in 30 μL or 10 μL assay volume, respectively. TR-FRET measurements were acquired on a Tecan SPARK plate reader with SPARKCONTROL software version V2.1 (Tecan Group Ltd.), with the following settings: 340/50 nm excitation, 490/10 nm (Tb), 520/10 nm (FITC) emission, 100 μs delay, and 400 μs integration. The 490/10 and 520/10 nm emission channels were acquired with a 50% mirror and a dichroic 510 mirror, respectively, using independently optimized detector gain settings unless specified otherwise. The TR-FRET ratio was taken as the 520/490 nm intensity ratio on a per-well basis.
For the profiling of endogenous BRD4, cell lysates as prepared above were diluted to 0.8 mg/mL total protein in 1:3 lysis buffer:dilution buffer with 0.5 nM rabbit anti-BRD4 antibody (Cell Signaling Technology; E2A7X) and 1 nM CoraFluor-1-labeled anti-rabbit Nano-Secondary (ChromoTek CTK0101). JQ1-FITC was added in serial dilution (cmax = 200 nM) using an HP D300 digital dispenser and allowed to equilibrate for 2 h at room temperature before TR-FRET measurements were taken. Nonspecific signal was determined with 50 μM JQ1-Acid, and data were fitted to a One Site–Specific Binding model in Prism 9. The KD,app determined from the one-site model was then adjusted for a two-site model using Eq. 1.
(§2) The following assay parameters have been used: (i) 4 nM GST-BRD4(BD1), 4 nM CoraFluor-labeled GST VHH, 20 nM JQ1-FITC in assay buffer, (ii) 4 nM GST-BRD4(BD2), 4 nM CoraFluor-labeled GST VHH, 20 nM JQ1-FITC in assay buffer, (iii) HEK293T or NPC cell lysate at 0.8 mg/mL total protein, 1 nM rabbit anti-BRD4 antibody, 2 nM CoraFluor-labeled anti-rabbit Nano-Secondary, 20 nM JQ1-FITC. For all experiments, test compounds were added in serial dilution (cmax = 10 μM) using an HP D300 digital dispenser and allowed to equilibrate for 2 h at room temperature before TR-FRET measurements were taken. The assay floor (background) was defined with the 10 μM mivebresib dose, and the assay ceiling (top) was defined via a no-inhibitor control. Data were fitted to a four-parameter dose–response model in Prism 9.
(§3) For TR-FRET ligand displacement assays with recombinant bromodomains, we have determined the KD of the respective fluorescent tracer (JQ1-FITC) under each assay condition. For endogenous BRD4 in whole cell extract, we have determined the KD,app of JQ1-FITC under each assay condition. Inhibitor KD and KD,app values have been calculated using Cheng-Prusoff principles, outlined in Eq. 2 below:2 KDorKD,app=IC50/1+[S]/KX where IC50 is the measured IC50 value, [S] is the concentration of fluorescent tracer, and KX is the KD or KD,app of the fluorescent tracer for a given condition.

[2] = biological target: T2, Recombinant BRD4(BD1) (Homo sapiens, UniProt O60885); assay: TR-FRET ligand displacement, recombinant GST-BRD4(BD1); conditions: for Kd: GST-tagged, with 95% confidence interval
T2 construct: using the recombinant, individually purified bromodomains of BRD4 (GST-tagged BD1 and BD2); purchased BPS Biosciences, Inc 31,040
Protocol: as §1
(§4) Assays were performed as described. Recombinant BRD4(BD1) and BRD4(BD2) were purchased from BPS Biosciences, Inc and Epicypher, Inc (GST-BRD4(BD1), 31,040; GST-BRD4(BD2), 15–0013, respectively). Recombinant bromodomains were diluted to 0.5 nM in assay buffer (25 mM HEPES, 150 mM NaCl, 0.5 mg/mL BSA, 0.005% TWEEN-20, pH 7.5) with 2 nM CoraFluor-1-labeled GST VHH (ChromoTek ST-250), then JQ1-FITC was added in serial dilution (cmax = 100 nM) using an HP D300 digital dispenser and allowed to equilibrate for 2 h at room temperature before TR-FRET measurements were taken. Nonspecific signal was determined with 50 μM JQ1-Acid, and data were fitted to a One Site–Specific Binding model in Prism 9. The KD determined from the one-site model was then used in Eq. 1 to adjust for a two-site model due to the dimeric GST protein:1 KD,2-site=KD,1-site×(1+2)
as §2, §3

[3] = biological target: T3, Recombinant BRD4(BD2) (Homo sapiens, UniProt O60885); assay: TR-FRET ligand displacement, recombinant GST-BRD4(BD2); conditions: GST-tagged, with 95% confidence interval
T3 construct: using the recombinant, individually purified bromodomains of BRD4 (GST-tagged BD1 and BD2); purchased Epicypher, Inc 15–0013
Protocol: as §1, §4, §2, §3

Structure (SMILES) | Kd [1] [nM] | Kd [2] [nM] | Kd [3] [nM] | selectivity for BD1 over BD2 ([2]; recombinant BRD4 BD1 vs BD2)
Cn1cc(-c2cc(F)cnc2Oc2ccc(F)cc2)c2cc[nH]c2c1=O [Compound 86A, 4-(5-fluoro-2-(4-fluorophenoxy)pyridin-3-yl)-6-methyl-1,6-dihydro-7H-pyrrolo[2,3-c]pyridin-7-one] | 559 | 168 | 324 | –
Cn1cc(-c2cccnc2Oc2ccc(F)c(F)c2)c2cc[nH]c2c1=O [Compound 81A, 4-(2-(3,4-difluorophenoxy)pyridin-3-yl)-6-methyl-1,6-dihydro-7H-pyrrolo[2,3-c]pyridin-7-one] | 30 | 29 | 34 | –
Cn1cc(-c2cccnc2Oc2cc(F)cc(F)c2)c2cc[nH]c2c1=O [Compound 82A, 4-(2-(3,5-difluorophenoxy)pyridin-3-yl)-6-methyl-1,6-dihydro-7H-pyrrolo[2,3-c]pyridin-7-one] | 49 | 41 | 30 | –
Cn1ccc2c(-c3cccnc3Oc3ccc(F)c(F)c3)c[nH]c2c1=O [Compound 81B, 3-(2-(3,4-difluorophenoxy)pyridin-3-yl)-6-methyl-1,6-dihydro-7H-pyrrolo[2,3-c]pyridin-7-one] | 538 | 126 | 375 | –
Cn1ccc2c(-c3cccnc3Oc3ccc(F)cc3)c[nH]c2c1=O [Compound 18B, 3-[2-(4-fluorophenoxy)pyridin-3-yl]-6-methyl-1,6-dihydro-7H-pyrrolo[2,3-c]pyridin-7-one] | 121 | 46 | 158 | –
Cn1cc(-c2cccnc2Oc2ccc(F)cc2)c2cc[nH]c2c1=O [Compound 18A, 4-(2-(4-fluorophenoxy)pyridin-3-yl)-6-methyl-1H-pyrrolo[2,3-c]pyridin-7(6H)-one] | 44 | 28 | 24 | –
Cn1cc(-c2cccnc2Sc2ccc(F)cc2)c2cc[nH]c2c1=O [Compound 84A, 4-(2-((4-fluorophenyl)thio)pyridin-3-yl)-6-methyl-1,6-dihydro-7H-pyrrolo[2,3-c]pyridin-7-one] | 370 | 303 | 199 | –
Cn1ccc2c(-c3cc(F)cnc3Oc3ccc(F)cc3)c[nH]c2c1=O [Compound 86B, 3-(5-fluoro-2-(4-fluorophenoxy)pyridin-3-yl)-6-methyl-1,6-dihydro-7H-pyrrolo[2,3-c]pyridin-7-one] | 7150 | 2640 | 3710 | –
Cn1ccc2c(-c3cccnc3Sc3ccc(F)cc3)c[nH]c2c1=O [Compound 84B, 3-(2-((4-fluorophenyl)thio)pyridin-3-yl)-6-methyl-1,6-dihydro-7H-pyrrolo[2,3-c]pyridin-7-one] | 196 | 43 | 133 | –
Cn1ccc2c(-c3cccnc3Nc3ccc(F)cc3)c[nH]c2c1=O [Compound 85B, 3-(2-((4-fluorophenyl)amino)pyridin-3-yl)-6-methyl-1,6-dihydro-7H-pyrrolo[2,3-c]pyridin-7-one] | 3910 | 951 | 2740 | –
Cn1cc(-c2cccnc2Nc2ccc(F)cc2)c2cc[nH]c2c1=O [Compound 85A, 4-(2-((4-fluorophenyl)amino)pyridin-3-yl)-6-methyl-1,6-dihydro-7H-pyrrolo[2,3-c]pyridin-7-one] | 93 | 76 | 421 | ~ 5.5 fold
Cn1ccc2c(-c3cccnc3Oc3cc(F)cc(F)c3)c[nH]c2c1=O [Compound 82B, 3-(2-(3,5-difluorophenoxy)pyridin-3-yl)-6-methyl-1,6-dihydro-7H-pyrrolo[2,3-c]pyridin-7-one] | 519 | 147 | 332 | –
